Data published in patent US8188098B2, “GPR119 receptor agonists” (Hoffmann-La Roche Inc., priority 2008, dated 2012).
Structures can show the parent of a compound that is named as a salt.

Biological target: T1, GPR119 receptor (Mesocricetus auratus, UniProt A0A1U8CD06)
T1 construct: which endogenously express the GPR119 receptor; host or cells: HIT-T15 hamster pancreatic islet cells
T1 sequence (A0A1U8CD06 1-334): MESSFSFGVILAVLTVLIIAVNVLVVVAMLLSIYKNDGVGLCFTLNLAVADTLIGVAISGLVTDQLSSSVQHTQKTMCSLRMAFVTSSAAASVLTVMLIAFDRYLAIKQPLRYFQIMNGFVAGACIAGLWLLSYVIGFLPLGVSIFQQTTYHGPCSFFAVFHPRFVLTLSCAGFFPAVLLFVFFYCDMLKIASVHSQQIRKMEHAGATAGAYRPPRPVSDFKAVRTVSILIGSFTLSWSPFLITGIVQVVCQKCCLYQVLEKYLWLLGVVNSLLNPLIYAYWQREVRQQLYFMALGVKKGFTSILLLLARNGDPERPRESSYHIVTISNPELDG
Test: cAMP assay in HIT-T15 hamster pancreatic islet cells (functional agonist activity)
Format: cell-based
Details: HIT-T15 cells endogenously expressing GPR119; 30 min at 25° C.; intracellular cAMP
Summary of the method: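 cAMP immunoassay with luminescent read-out, EC50 fitted, after a 30 min, 25° C agonist incubation in HIT-T15 hamster islet cells expressing GPR119 natively. Medium contained 0.5 mM IBMX and 0.5 mg/ml BSA; 9000 cells/well.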

SMILES	EC50
CC(C)(C)OC(=O)N1CCC(n2ncc3c(Oc4ccc(C#N)c(F)c4)ncnc32)CC1 [Example 48, 4-[4-(4-Cyano-3-fluoro-phenoxy)-pyrazolo[3,4-d]pyrimidin-1-yl]-piperidine-1-carboxylic acid tert-butyl ester]	0.22 µM
CC(C)(C)OC(=O)N1CCC(n2ncc3c(Oc4ccc5c(c4)CCS5(=O)=O)ncnc32)CC1 [Example 79, 4-[4-(1,1-Dioxo-2,3-dihydro-1H-1λ^6-benzo[b]thiophen-5-yloxy)-pyrazolo[3,4-d]pyrimidin-1-yl]-piperidine-1-carboxylic acid tert-butyl ester]	0.82 µM
CC(C)OC(=O)N1CCC(n2ncc3c(Oc4cc(F)c(F)cc4F)ncnc32)CC1 [Example 16, 4-[4-(2,4,5-Trifluoro-phenoxy)-pyrazolo[3,4-d]pyrimidin-1-yl]-piperidine-1-carboxylic acid isopropyl ester]	0.21 µM
CC(C)(C)OC(=O)N1CCC(n2ncc3c(Oc4c(C#N)ccc(F)c4F)ncnc32)CC1 [Example 49, 4-[4-(6-Cyano-2,3-difluoro-phenoxy)-pyrazolo[3,4-d]pyrimidin-1-yl]-piperidine-1-carboxylic acid tert-butyl ester]	0.048 µM
CC(=O)Nc1cccc(Oc2ncnc3c2cnn3C2CCN(C(=O)OC(C)(C)C)CC2)c1 [Example 69, 4-[4-(3-Acetylamino-phenoxy)-pyrazolo[3,4-d]pyrimidin-1-yl]-piperidine-1-carboxylic acid tert-butyl ester]	0.6 µM
CC(C)(C)OC(=O)N1CCCC(n2ncc3c(Oc4ccccc4C#N)ncnc32)C1 (stereo not drawn) [Example 90, 3-[4-(2-Cyano-phenoxy)-pyrazolo[3,4-d]pyrimidin-1-yl]-piperidine-1-carboxylic acid tert-butyl ester]	0.12 µM
CC(C)(C)OC(=O)N1CCC(n2ncc3c(Oc4ccc(S(N)(=O)=O)cc4)ncnc32)CC1 [Example 56, 4-[4-(4-Sulfamoyl-phenoxy)-pyrazolo[3,4-d]pyrimidin-1-yl]-piperidine-1-carboxylic acid tert-butyl ester]	0.28 µM
Cc1ncccc1Oc1ncnc2c1cnn2C1CCN(C(=O)OC(C)C)CC1 [Example 28, 4-[4-(2-Methyl-pyridin-3-yloxy)-pyrazolo[3,4-d]pyrimidin-1-yl]-piperidine-1-carboxylic acid isopropyl ester hydrochloride salt]	0.82 µM
COC(=O)c1ccc(Oc2ncnc3c2cnn3C2CCN(C(=O)OC(C)(C)C)CC2)c(F)c1 [Example 63, 4-[4-(2-Fluoro-4-methoxycarbonyl-phenoxy)-pyrazolo[3,4-d]pyrimidin-1-yl]-piperidine-1-carboxylic acid tert-butyl ester]	0.42 µM
CC(C)(C)OC(=O)N1CCC(n2ncc3c(Oc4ccc(Cl)cc4C#N)ncnc32)CC1 [Example 51, 4-[4-(4-Chloro-2-cyano-phenoxy)-pyrazolo[3,4-d]pyrimidin-1-yl]-piperidine-1-carboxylic acid tert-butyl ester]	0.11 µM
CC(C)(C)OC(=O)N1CCC(n2ncc3c(Oc4ccc(Br)cc4C#N)ncnc32)CC1 [Example 52, 4-[4-(4-Bromo-2-cyano-phenoxy)-pyrazolo[3,4-d]pyrimidin-1-yl]-piperidine-1-carboxylic acid tert-butyl ester]	0.75 µM

Continued, values first:

EC50	SMILES
0.4 µM	CC(C)CS(=O)(=O)N1CCC(n2ncc3c(Oc4ccc(S(C)(=O)=O)cc4)ncnc32)CC1 [Example 171, 4-(4-Methanesulfonyl-phenoxy)-1-[1-(2-methyl-propane-1-sulfonyl)-piperidin-4-yl]-1H-pyrazolo[3,4-d]pyrimidine]
1.7 µM	CS(=O)(=O)c1ccc(Oc2ncnc3c2cnn3C2CCN(C(=O)c3ccccc3)CC2)cc1 [Example 149, {4-[4-(4-Methanesulfonyl-phenoxy)-pyrazolo[3,4-d]pyrimidin-1-yl]-piperidin-1-yl}-phenylmethanone]
1.2 µM	CC(C)(C)OC(=O)N1CCC(n2ncc3c(Oc4cccnc4)ncnc32)CC1 [Example 91, 4-[4-(Pyridin-3-yloxy)-pyrazolo[3,4-d]pyrimidin-1-yl]-piperidine-1-carboxylic acid tert-butyl ester]
0.36 µM	CC(C)Cc1cc(C(=O)N2CCC(n3ncc4c(Oc5ccc(S(C)(=O)=O)cc5)ncnc43)CC2)no1 [Example 154, (5-Isobutyl-isoxazol-3-yl)-{4-[4-(4-methanesulfonyl-phenoxy)-pyrazolo[3,4-d]pyrimidin-1-yl]-piperidin-1-yl}-methanone]
0.11 µM	CC(C)COC(=O)N1CCC(n2ncc3c(Oc4ccc(S(C)(=O)=O)cc4)ncnc32)CC1 [Example 106, 4-[4-(4-Methanesulfonyl-phenoxy)-pyrazolo[3,4-d]pyrimidin-1-yl]-piperidine-1-carboxylic acid isobutyl ester]
0.58 µM	CS(=O)(=O)c1ccc(Oc2ncnc3c2cnn3C2CCN(C(=O)CC3CCCCC3)CC2)cc1 [Example 145, 2-Cyclohexyl-1-{4-[4-(4-methanesulfonyl-phenoxy)-pyrazolo[3,4-d]pyrimidin-1-yl]-piperidin-1-yl}-ethanone]
4.4 µM	Cc1cc(C(=O)N2CCC(n3ncc4c(Oc5ccc(S(C)(=O)=O)cc5)ncnc43)CC2)no1 [Example 153, {4-[4-(4-Methanesulfonyl-phenoxy)-pyrazolo[3,4-d]pyrimidin-1-yl]-piperidin-1-yl}-(5-methyl-isoxazol-3-yl)-methanone]
0.53 µM	Cc1nc(Cl)ccc1Oc1ncnc2c1cnn2C1CCN(C(=O)OC(C)(C)C)CC1 [Example 97, 4-[4-(6-Chloro-2-methyl-pyridin-3-yloxy)-pyrazolo[3,4-d]pyrimidin-1-yl]-piperidine-1-carboxylic acid tert-butyl ester]
0.16 µM	CS(=O)(=O)c1ccc(Oc2ncnc3c2cnn3C2CCN(C(=O)OCC(F)(F)F)CC2)cc1 [Example 113, 4-[4-(4-Methanesulfonyl-phenoxy)-pyrazolo[3,4-d]pyrimidin-1-yl]-piperidine-1-carboxylic acid 2,2,2-trifluoro-ethyl ester]
1.5 µM	CS(=O)(=O)c1ccc(Oc2ncnc3c2cnn3C2CCN(Cc3cccc(C#N)c3)CC2)cc1 [Example 168, 3-{4-[4-(4-Methanesulfonyl-phenoxy)-pyrazolo[3,4-d]pyrimidin-1-yl]-piperidin-1-ylmethyl}-benzonitrile]
0.1 µM	CC(C)(C)COC(=O)N1CCC(n2ncc3c(Oc4ccc(S(C)(=O)=O)cc4)ncnc32)CC1 [Example 108, 4-[4-(4-Methanesulfonyl-phenoxy)-pyrazolo[3,4-d]pyrimidin-1-yl]-piperidine-1-carboxylic acid 2,2-dimethyl-propyl ester]
0.39 µM	CC(C)c1noc(C2CCC(n3ncc4c(Oc5ccc(S(C)(=O)=O)cc5F)ncnc43)CC2)n1 (stereo not drawn) [Example 131, 4-(2-Fluoro-4-methanesulfonyl-phenoxy)-1-[4-(3-isopropyl-[1,2,4]oxadiazol-5-yl)-cyclohexyl]-1H-pyrazolo[3,4-d]pyrimidine]
0.26 µM	CCOc1ccc(Oc2ncnc3c2cnn3C2CCN(C(=O)C3CCCC3)CC2)c(F)c1 [Example 147, Cyclopentyl-{4-[4-(4-ethoxy-2-fluoro-phenoxy)-pyrazolo[3,4-d]pyrimidin-1-yl]-piperidin-1-yl}-methanone]
